“Also recorded” adds a separate entry of the source.
Tests used:
[1] = Kinetic and thermodynamic solubility assays (Malvern Panalytical); format: physicochemical; conditions: phosphate buffer, physiological pH 7.4; compared with Yoda1
Procedure: Kinetic and thermodynamic solubility assays were also performed by Malvern Panalytical (UK). Briefly, 1000 μl of 0.1 M phosphate buffer (pH 7.4) received either 25 μl of a 10 mM DMSO stock of test compound (for kinetic solubility assays) or 1 mg of test compound (for thermodynamic solubility assays). The mixtures were shaken on an orbital mixer to reach equilibrium for 1 or 24 h, respectively. The equilibrated solution was centrifuged, and the supernatant was removed to a fresh vial and then re‐centrifuged. High‐ and low‐dilution samples were prepared from the secondary supernatant and quantified by LC–MS/MS against a standard curve.

hPIEZO1 = target: T1, hPIEZO1 (Homo sapiens, UniProt Q92508); assay: Pre-treatment with analogue before Yoda1 stimulus, Ca2+ assay in hPIEZO1-TREx cells; format: cell-based; conditions: hPIEZO1-TREx, 10 μM compound 30 min pretreatment before 2 μM Yoda1
T1 construct: expressed in transfected cells
Procedure: HEK 293‐TREx cells and their stably transfected derivatives or transiently transfected HEK 293 or HeLa cells were seeded at a density of 7.5 × 10^4 cells per well into poly‐D‐lysine‐coated 96‐well plates. The plates were either commercially pre‐coated with poly‐D‐lysine (Greiner Bio‐One #655946) or (Greiner Bio‐One #655090) were coated in‐house with 35 μl of a 10 μg·ml^−1 poly‐D‐lysine (Bio‐Techne, Cultrex # 3439‐100‐01) in sterile deionised water per well for at least 24 h and rinsed three times with 100 μl per well sterile D‐PBS before addition of cells. HUVECs were seeded into tissue culture‐treated 96‐well plates (Greiner Bio‐One #655090) at a density of either 2.5 × 10^4 cells 24 h before experimentation or 1.25 × 10^4 cells 48 h before experimentation. Cells were incubated with 2 μM Fura‐2‐AM (Molecular Probes™) in the presence of 0.01% (wt./vol.) pluronic F127 (Sigma‐Aldrich #P2443) in standard bath solution (SBS) for 1 h at 37°C. Cells were washed with SBS for 30 min at room temperature. Alternatively, if inhibitors were being tested, these were added at this time, immediately following a wash in SBS. (−)‐Englerin A (Akbulut et al., [2015]) was used in SBS containing 0.01% pluronic acid as a dispersing agent to minimise aggregation of compound. Unless otherwise stated, the final concentration of DMSO was 0.2% (vol./vol). Working 2000× stock solutions of test compounds were freshly made in DMSO and diluted 1000‐fold in SBS during the 30 min SBS wash/inhibitor pre‐incubation period to obtain 2× solutions for injection. When testing the highest concentration of Yoda1, KC159 and KC289 (30 μM), the final DMSO concentration was 0.6% (vol./vol.). Measurements were made at room temperature on a 96‐well fluorescence plate reader (FlexStation 3, Molecular Devices, Sunnyvale, CA, USA) controlled by SoftMax Pro software v7.0.3. Recipient wells containing 80 μl SBS/0.2% (vol./vol.) DMSO vehicle or inhibitor compound received 80 μl 2× compound at an injection rate of 1 μl·s^−1, and the pipette introduced liquids from a height setting of 70 μl. No trituration was performed. For recordings using Fura‐2, the change in intracellular Ca was indicated as the ratio of Fura‐2 emission (510 nm) intensities at 340 and 380 nm excitation. Photomultipliers were set to medium sensitivity. SBS contained 130 mM NaCl, 5 mM KCl, 8 mM D‐glucose, 10 mM HEPES, 1.2 mM MgCl2 and 1.5 mM CaCl2, and the pH was adjusted to 7.4 with NaOH. The solution was filtered through a 0.2 μm bottle‐top filter prior to use and handled aseptically thereafter.
In view of the effect of Dooku1 described above, we tested if there are inhibitory actions of the new Yoda1 analogues by pre‐treating cells at 10 μM for 30 min prior to adding 2 μM Yoda1 (Figures 9 and S9, SI 1). All except KC157 and KC161 inhibited the action of Yoda1 on hPIEZO1 channels (Figures 9a and S9, SI 1). […] KC159 and KC289 were agonists, and so they may inhibit the effect of Yoda1 simply by pre‐activating the channels. KC158, KC161 and KC162 are also agonists of mPIEZO1 channels (Figure 3). […] Only the 2‐benzoic acid analogue (KC157) lacks agonist or antagonist properties.

Microsomal half-life = format: in vitro ADME; conditions: mouse liver microsomes; for half-life at 1 μM: 1 μM compound
Procedure: Compound half‐lives were measured by Malvern Panalytical (UK). Briefly, microsomal mouse liver microsomes (1 mg protein·ml^−1) were pre‐incubated with NADPH cofactor solution at 37°C. Biotransformation was initiated by addition and mixing of 1 μM test compound in a final volume of 350 μl; 25 μl aliquots were removed at 5 min intervals for 35 min and quenched in 300 μl ice‐cold methanol containing internal standard. The protein in the samples was then precipitated by centrifugation at 4°C, and the supernatant was analysed by LC–MS/MS to quantify the test parent compound remaining at each time point.

[2] = Plasma protein binding by rapid equilibrium dialysis; format: in vitro ADME; conditions: RED
Procedure: Mouse plasma protein binding was measured by rapid equilibrium dialysis (RED) performed by Malvern Panalytical (UK). Briefly, mouse plasma was warmed to 37°C for 10 min, and test compound stock solution was added to achieve a 5 μM solution; 500 μl of dialysis buffer was added to one side of the chamber of the device insert (Piercenet, Dialysis membrane MWCO 8000) housed within a heated Teflon block, and the incubation was initiated by the addition of 300 μl of the test compound protein solution to the opposite chamber. Equilibrium was reached by shaking the device on an orbital mixer at 37°C for 4 h; 50 μl aliquots from the buffer and the plasma chambers were transferred into separate wells of a deep‐well plate; 50 μl of plasma was added to the buffer samples, and 50 μl of buffer was added to the plasma samples; 300 μl of ice‐cold acetonitrile containing internal standard was added to precipitate the protein. Samples were then centrifuged (2700 × g at 4°C for 20 min) to pellet the protein, and the supernatant was analysed by LC–MS/MS to quantify the % input compound unbound to plasma protein with reference to a standard curve.

mouse PIEZO2 (mPIEZO2) = tested on: mouse PIEZO2 (mPIEZO2); set-up: method as in Syeda et al., 2015; conditions: mPIEZO2 overexpressed in HEK 293 cells; ref Syeda et al., 2015; cited from earlier work

T1 sequence (Q92508 whole entry): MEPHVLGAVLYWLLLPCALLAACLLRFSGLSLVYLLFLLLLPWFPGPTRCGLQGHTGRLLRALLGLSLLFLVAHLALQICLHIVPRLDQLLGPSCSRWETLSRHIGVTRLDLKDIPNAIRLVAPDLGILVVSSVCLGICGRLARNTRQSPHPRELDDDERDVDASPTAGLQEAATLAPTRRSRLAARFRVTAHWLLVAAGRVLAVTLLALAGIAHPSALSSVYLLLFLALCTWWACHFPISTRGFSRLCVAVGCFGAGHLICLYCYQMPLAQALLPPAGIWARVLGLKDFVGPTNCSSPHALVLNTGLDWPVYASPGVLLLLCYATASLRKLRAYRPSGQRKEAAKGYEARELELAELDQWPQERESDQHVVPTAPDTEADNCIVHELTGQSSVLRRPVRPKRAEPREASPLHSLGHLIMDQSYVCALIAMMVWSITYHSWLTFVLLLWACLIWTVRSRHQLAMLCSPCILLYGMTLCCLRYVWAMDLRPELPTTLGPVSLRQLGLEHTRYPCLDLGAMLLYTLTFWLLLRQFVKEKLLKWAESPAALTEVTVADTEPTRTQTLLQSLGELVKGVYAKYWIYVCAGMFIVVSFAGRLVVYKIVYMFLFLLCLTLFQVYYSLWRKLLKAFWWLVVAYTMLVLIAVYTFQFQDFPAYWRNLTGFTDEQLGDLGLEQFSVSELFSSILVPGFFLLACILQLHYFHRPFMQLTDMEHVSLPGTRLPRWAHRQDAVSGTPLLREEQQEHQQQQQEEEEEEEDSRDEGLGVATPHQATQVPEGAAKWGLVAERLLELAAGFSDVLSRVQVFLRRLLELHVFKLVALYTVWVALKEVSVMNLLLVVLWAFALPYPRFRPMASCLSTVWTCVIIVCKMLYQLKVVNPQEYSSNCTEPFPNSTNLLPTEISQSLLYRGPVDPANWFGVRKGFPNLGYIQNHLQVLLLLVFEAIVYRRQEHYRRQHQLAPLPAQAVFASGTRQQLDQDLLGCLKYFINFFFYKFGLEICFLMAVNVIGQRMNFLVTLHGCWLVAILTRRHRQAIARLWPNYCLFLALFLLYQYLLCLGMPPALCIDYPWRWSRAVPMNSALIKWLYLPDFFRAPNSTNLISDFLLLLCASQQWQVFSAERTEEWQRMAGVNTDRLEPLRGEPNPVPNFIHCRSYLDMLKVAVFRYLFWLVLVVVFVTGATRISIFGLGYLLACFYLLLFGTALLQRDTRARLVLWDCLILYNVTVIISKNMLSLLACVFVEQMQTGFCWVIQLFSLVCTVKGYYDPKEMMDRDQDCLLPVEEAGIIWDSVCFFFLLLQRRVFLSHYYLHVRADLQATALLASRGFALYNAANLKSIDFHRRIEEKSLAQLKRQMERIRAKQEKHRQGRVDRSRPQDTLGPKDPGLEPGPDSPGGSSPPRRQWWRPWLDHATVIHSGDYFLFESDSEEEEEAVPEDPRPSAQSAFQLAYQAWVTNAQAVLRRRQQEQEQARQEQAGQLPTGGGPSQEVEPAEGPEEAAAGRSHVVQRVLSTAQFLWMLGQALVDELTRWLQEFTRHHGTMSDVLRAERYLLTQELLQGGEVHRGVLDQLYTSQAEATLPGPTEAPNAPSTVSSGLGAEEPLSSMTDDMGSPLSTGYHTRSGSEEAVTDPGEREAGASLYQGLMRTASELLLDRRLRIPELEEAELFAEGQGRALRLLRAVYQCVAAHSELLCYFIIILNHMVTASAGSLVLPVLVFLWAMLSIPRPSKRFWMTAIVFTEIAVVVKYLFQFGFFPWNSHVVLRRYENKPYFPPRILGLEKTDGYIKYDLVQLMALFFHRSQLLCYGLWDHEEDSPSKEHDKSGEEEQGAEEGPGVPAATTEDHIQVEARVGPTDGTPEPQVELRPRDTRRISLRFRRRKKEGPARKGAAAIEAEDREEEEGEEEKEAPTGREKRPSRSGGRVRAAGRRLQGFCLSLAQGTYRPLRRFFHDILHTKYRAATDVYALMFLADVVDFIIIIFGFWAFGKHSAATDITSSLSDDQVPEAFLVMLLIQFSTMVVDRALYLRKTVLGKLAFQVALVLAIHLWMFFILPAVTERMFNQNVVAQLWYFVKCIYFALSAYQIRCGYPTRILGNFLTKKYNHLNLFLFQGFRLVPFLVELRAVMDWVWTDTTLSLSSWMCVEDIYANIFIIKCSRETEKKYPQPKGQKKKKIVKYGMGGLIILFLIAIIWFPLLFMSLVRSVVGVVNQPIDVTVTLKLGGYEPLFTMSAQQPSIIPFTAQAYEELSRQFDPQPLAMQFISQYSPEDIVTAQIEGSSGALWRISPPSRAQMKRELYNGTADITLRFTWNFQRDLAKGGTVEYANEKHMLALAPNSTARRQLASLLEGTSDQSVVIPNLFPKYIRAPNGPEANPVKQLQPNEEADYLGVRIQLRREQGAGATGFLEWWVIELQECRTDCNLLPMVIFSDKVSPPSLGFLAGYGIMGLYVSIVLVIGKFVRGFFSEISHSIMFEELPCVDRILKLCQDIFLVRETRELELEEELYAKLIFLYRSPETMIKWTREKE

SMILES	Kinetic solubility [1]	Thermodynamic solubility [1]	2 μM Yoda1-evoked peak ΔCa2+i (ΔF340/380), median fold difference compared to DMSO pretreatment (hPIEZO1)	Microsomal half-life relative to Yoda1 (Microsomal half-life)	half-life at 1 μM (Microsomal half-life)	fraction unbound at 4 h, 5 μM ([2]; mouse, plasma, read-out: Fraction bound to plasma proteins (converted))	Fraction bound to plasma proteins ([2]; mouse plasma, 5 μM)	Activation of PIEZO2 (mouse PIEZO2 (mPIEZO2))
O=C(O)c1ccc(-c2nnc(SCc3c(Cl)cccc3Cl)s2)cc1 [KC159]	better solubility than Yoda1	better solubility than Yoda1	−1.7 fold	at least 20 times	29.6 min	0.006		
O=C([O-])c1ccc(-c2nnc(SCc3c(Cl)cccc3Cl)s2)cc1.[K+] [KC289]	better solubility than Yoda1	better solubility than Yoda1	−2.5 fold	at least 20 times	24.6 min		99.35%	
Clc1cccc(Cl)c1CSc1nnc(-c2cnccn2)s1 [Yoda1, 2‐[5‐[[(2,6‐dichlorophenyl)methyl]thio]‐1,3,4‐thiadiazol‐2‐yl]pyrazine]								does not activate; also recorded: not to activate
